Data published in US20230250392A1, “MEDIA AND METHODS FOR ENHANCING THE SURVIVAL AND PROLIFERATION OF STEM CELLS” (STEMCELL TECHNOLOGIES CANADA INC., priority 2017, published 2023).

What was measured:
Type in all cases: cell-based, human
[1] = test system: WLS-1C and H1 cells; assay: Example 11: cloning efficiency with albumins of different suppliers with or without two free fatty acids; details: for cloning efficiency of albumin without the additional two free fatty acids: compared among suppliers' albumins; for cloning efficiency when albumin is provided along with two free fatty acids: versus the same albumin without added fatty acids
[2] = test system: H1 and WLS-1C hPSCs; assay: Example 12: cloning efficiency with individual free fatty acids in the presence of a carrier; details: 600 μg free fatty acid per gram of carrier spiked into mTeSR1 plus 10 μM Y-27632
Procedure: 12-well culture plates were coated with 0.5 mL of cloning matrix or extracellular matrix (1:25 dilution in […] Dilution Buffer) and placed at room temperature for 1 hour. The matrix was then aspirated and 1 mL of media (mTeSRTM1 or TeSRTM-E8TM supplemented with either 10 μM Y27632 or media comprising lipid-enriched albumin, GABA, pipecolic acid, lithium chloride, FGF, TGFβ and Y-27632 (hereafter termed cloning supplement)) was added to each well and the plate was placed at 37° C. for 1 hour. hPSC lines were dissociated to single cells and seeded into the pre-warmed plates at 25 cells/cm^2 and placed at 37° C. for two days. The cells were then fed with fresh media (mTeSRTM1 or TeSRTM-E8TM supplemented with either 10 μM Y-27632 or cloning supplement) and placed at 37° C. for two days. On day four the cells were then fed with 1 mL of mTeSRTM1 or TeSRTM-E8TM without additives and fed daily until day seven. Cells were then fixed using 4% paraformaldehyde and stained for alkaline phosphatase. Undifferentiated colonies were then counted and cloning efficiency was determined using the following calculation: (Number of undifferentiated colonies at day seven (per well)/Number of cells seeded at day zero (per well))×100. (Error bars represent standard deviation from three biological replicates). In this experiment, 600 μg of the shown free fatty acids were spiked into culture medium (mTeSRTM1 plus 10 μM Y-27632) per gram of carrier also spiked into the culture medium. Cloning efficiencies were calculated as described in Example 1, for example.

[3] = test system: WLS-1C, H1 and STiPS-F016 cells; assay: Example 8: cloning efficiency with lipid poor albumin loaded with one, two or three fatty acids; details: for cloning efficiency in comparison to the 3 fatty acid-loaded albumin: H1, WLS-1C, STiPS-F016, fatty acid loaded on lipid poor albumin at 600 μg per gram, final 6 ng/mL
Procedure: In particular, each of the one or more fatty acids was incubated with albumin at a concentration of 600 μg of each fatty acid per gram of albumin. The product of such incubation was subsequently added to the culture medium at a final concentration of 6 ng/mL.

[4] = test system: H1, WLS-1C, and H9 hPSCs; assay: Example 13: cloning efficiency with detrimental fatty acids loaded onto a BSA sample; details: 300 μg/g loaded onto a specific BSA sample
Procedure: In the experiment shown in FIG. 13, 300 μg/g of either arachidonic acid or α-linolenic acid were loaded onto a specific BSA sample and added to a culture comprising H1, WLS-1C, and H9 hPSCs.

A1: BSA of Supplier A lot 1, already comprising 3000-7000 ug/g overall fatty acid
cloning efficiency of albumin without the additional two free fatty acids [1]: lowest cloning efficiencies | cloning efficiency when albumin is provided along with two free fatty acids [1]: not enhanced

CCCCCCCCCCCCCC(=O)O [myristic acid]
effect on survival and proliferation (cloning efficiency) [2]: helpful in enhancing the survival and proliferation

A2: BSA of Supplier A lot 2, already comprising 3000-7000 ug/g overall fatty acid
cloning efficiency of albumin without the additional two free fatty acids [1]: lowest cloning efficiencies | cloning efficiency when albumin is provided along with two free fatty acids [1]: not enhanced

CCCCCCCC/C=C\CCCCCCCC(=O)O [oleic acid]
effect on survival and proliferation (cloning efficiency) [2]: helpful in enhancing the survival and proliferation | cloning efficiency in comparison to the 3 fatty acid-loaded albumin [3]: comparable cloning efficiencies

CCCCC/C=C\C/C=C\CCCCCCCC(=O)O [linoleic acid]
cloning efficiency relative to control and oleic and/or palmitic acid ([3]; WLS-1C and H1, only this fatty acid loaded on albumin at 600 μg per gram): reduce cloning efficiency

CC/C=C\C/C=C\C/C=C\CCCCCCCC(=O)O [α-linolenic acid]
effect on survival and proliferation (cloning efficiency) [2]: detrimental | cloning efficiency of the tested BSA sample [4]: decreased the cloning efficiency

CCCCCCCCCCCCCCCC(=O)O [palmitic acid]
effect on survival and proliferation (cloning efficiency) [2]: helpful in enhancing the survival and proliferation | cloning efficiency in comparison to the 3 fatty acid-loaded albumin [3]: comparable cloning efficiencies

CCCCCCCCCCCCCCCCCC(=O)O [stearic acid]
effect on survival and proliferation (cloning efficiency) [2]: helpful in enhancing the survival and proliferation

CC(C)CCC[C@@H](C)[C@H]1CC[C@H]2[C@@H]3CC=C4C[C@@H](O)CC[C@]4(C)[C@H]3CC[C@]12C [cholesterol]
effect on survival and proliferation (cloning efficiency) [2]: helpful in enhancing the survival and proliferation

CCCCC/C=C\C/C=C\C/C=C\C/C=C\CCCC(=O)O [arachidonic acid]
effect on survival and proliferation (cloning efficiency) [2]: detrimental | cloning efficiency of the tested BSA sample [4]: decreased the cloning efficiency
